Two compounds from patent US20230026696A1, “TRPV4 RECEPTOR LIGANDS” (UNIVERSITY OF UTAH RESEARCH FOUNDATION, priority 2019, published 2023) can be followed below.

One test deals with T1, TRPM8 (Homo sapiens, UniProt Q7Z2W7).
T1 construct: expressed in transfected cells
In words: Selectivity Ca2+ flux assay, TRPM8 stably over-expressed in HEK-293 cells. The test is classed as cell-based. The following applies: agonist icilin (50 μM). On the procedure:
(§1) To determine selectivity of the various test compounds for TRPV4, select compounds with activity in the TRPV4 fluorometric cell-based Ca^2+ flux assays were also tested for inhibition of human TRPA1 stably over-expressed in HEK-293 cells, TRPM8 stably over-expressed in HEK-293 cells, TRPV3 stably over-expressed in HEK-293 cells, and TRPV1 stably overexpressed in human lung epithelial (BEAS-2B) cells. The assays were conducted substantially as described above for HEK-293 cells that stably overexpress TRPV4, although for TRPV1, the BEAS-2B cells were maintained in LHC-9 media containing Geneticin (300 μg/mL) and were loaded with Fluo-4AM at room temperature. The agonist for TRPA1 was 2,4-ditert butylphenol (50 μM), for TRPM8 was icilin (50 μM), for TRPV3 was carvacrol (300 μM), and for TRPV1 was nonivamide (5 μM). All other aspects of the assay described above were the same.
On the technique in general: Calcium flux is commonly read through the fluorescence of an indicator in the cells.

A further test deals with T2, human TRPV4 (Homo sapiens, UniProt Q9HBA0).
T2 construct: expressed in transfected cells
T2 sequence (Q9HBA0 whole entry): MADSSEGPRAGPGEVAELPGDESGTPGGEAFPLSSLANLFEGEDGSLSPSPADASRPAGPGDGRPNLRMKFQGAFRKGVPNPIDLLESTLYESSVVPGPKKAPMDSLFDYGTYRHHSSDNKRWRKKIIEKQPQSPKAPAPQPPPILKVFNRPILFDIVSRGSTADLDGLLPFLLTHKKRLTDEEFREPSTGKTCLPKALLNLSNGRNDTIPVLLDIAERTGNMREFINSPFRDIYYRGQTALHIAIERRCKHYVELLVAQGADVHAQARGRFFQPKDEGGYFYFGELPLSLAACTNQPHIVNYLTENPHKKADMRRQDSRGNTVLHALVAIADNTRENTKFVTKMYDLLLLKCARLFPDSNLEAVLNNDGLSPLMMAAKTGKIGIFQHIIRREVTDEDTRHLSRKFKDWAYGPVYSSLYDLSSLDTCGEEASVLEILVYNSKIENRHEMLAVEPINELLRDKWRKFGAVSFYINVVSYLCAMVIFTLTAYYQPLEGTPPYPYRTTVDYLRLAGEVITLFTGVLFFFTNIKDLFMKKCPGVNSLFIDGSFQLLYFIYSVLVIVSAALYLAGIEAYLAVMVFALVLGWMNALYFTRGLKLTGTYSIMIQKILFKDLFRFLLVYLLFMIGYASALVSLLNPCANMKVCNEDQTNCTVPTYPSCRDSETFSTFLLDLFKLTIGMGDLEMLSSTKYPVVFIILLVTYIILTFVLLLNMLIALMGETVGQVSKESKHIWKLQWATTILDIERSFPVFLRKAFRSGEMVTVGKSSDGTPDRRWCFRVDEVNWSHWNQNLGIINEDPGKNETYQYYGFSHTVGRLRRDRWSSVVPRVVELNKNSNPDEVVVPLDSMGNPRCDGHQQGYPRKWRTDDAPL
As to the kind of experiment: Fluorometric cell-based Ca2+ flux assay, HEK-293 cells stably overexpressing human TRPV4. The following applies: for IC50: HEK-293 stably overexpressing human TRPV4, agonist GSK1016790A 30 nM. Put shortly:
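HEK-293 cells stably overexpressing human TRPV4, Fluo 4-loaded, pre-incubated 30 min at 37° C with compound, then stimulated with 30 nM GSK1016790A (final). Max ΔF/s over 1 min, media-corrected, expressed relative to no-antagonist control; IC50 from ≥8 concentrations, ≥3 replicates.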

The target in the next test is T3, TRPV3 (Homo sapiens, UniProt Q8NET8).
T3 construct: expressed in transfected cells
T3 sequence (Q8NET8 1-790): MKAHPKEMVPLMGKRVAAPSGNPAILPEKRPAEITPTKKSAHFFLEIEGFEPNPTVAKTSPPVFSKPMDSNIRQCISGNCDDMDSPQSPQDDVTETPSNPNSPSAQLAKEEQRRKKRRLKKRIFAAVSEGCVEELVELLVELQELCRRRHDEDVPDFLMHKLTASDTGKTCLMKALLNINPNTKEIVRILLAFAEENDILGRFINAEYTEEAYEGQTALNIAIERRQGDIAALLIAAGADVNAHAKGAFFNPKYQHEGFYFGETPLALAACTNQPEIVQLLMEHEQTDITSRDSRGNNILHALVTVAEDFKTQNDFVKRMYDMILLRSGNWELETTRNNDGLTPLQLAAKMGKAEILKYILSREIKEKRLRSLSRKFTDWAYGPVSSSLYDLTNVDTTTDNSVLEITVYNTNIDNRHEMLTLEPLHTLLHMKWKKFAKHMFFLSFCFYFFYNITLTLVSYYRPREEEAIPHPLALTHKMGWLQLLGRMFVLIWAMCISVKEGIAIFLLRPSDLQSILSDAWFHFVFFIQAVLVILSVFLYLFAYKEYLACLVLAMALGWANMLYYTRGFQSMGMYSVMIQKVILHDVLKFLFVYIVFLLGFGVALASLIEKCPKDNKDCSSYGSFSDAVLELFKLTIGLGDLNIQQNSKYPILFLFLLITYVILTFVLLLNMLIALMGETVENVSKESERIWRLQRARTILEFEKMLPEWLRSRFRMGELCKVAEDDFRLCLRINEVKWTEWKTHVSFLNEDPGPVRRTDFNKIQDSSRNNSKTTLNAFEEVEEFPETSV
In words: Selectivity Ca2+ flux assay, TRPV3 stably over-expressed in HEK-293 cells. Format: cell-based. To be noted: agonist carvacrol (300 μM). On the procedure:
as §1

A value given as a limit tells only on which side of the number the result lay.

T1 sequence (Q7Z2W7 whole entry): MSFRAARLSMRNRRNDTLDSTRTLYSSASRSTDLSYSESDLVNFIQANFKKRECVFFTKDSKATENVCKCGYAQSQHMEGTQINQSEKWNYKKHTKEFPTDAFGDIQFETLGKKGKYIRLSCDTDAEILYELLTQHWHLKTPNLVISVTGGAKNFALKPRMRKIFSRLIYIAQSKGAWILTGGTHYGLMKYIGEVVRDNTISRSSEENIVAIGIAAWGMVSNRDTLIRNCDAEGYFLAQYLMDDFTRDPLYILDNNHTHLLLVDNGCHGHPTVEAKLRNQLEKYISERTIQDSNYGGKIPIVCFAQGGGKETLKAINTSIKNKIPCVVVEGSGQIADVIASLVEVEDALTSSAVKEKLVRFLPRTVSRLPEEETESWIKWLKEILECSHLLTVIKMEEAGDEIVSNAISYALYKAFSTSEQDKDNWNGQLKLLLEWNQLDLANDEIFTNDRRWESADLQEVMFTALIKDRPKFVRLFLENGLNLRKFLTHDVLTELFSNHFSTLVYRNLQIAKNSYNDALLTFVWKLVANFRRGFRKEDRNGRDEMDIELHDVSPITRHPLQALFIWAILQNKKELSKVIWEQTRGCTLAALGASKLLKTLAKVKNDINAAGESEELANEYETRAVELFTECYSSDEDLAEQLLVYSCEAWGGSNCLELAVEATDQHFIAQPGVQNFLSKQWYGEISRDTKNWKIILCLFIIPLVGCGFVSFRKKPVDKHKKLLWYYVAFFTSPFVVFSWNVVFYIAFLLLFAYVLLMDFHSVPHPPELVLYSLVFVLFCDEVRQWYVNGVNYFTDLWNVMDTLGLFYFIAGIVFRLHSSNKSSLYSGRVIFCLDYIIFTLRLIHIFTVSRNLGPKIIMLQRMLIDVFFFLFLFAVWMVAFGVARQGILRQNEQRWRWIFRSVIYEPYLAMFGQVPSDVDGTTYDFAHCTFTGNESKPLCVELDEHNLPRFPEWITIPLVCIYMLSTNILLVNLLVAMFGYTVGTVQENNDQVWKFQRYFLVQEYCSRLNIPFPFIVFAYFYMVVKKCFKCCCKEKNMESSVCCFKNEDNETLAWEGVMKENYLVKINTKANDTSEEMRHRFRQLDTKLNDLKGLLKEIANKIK

In the case of `N#Cc1ccc(OCC2(CO)CN(S(=O)(=O)c3ccc(Cl)cc3Cl)C2)cc1F` [Compound 11, 4-((1-((2,4-Dichlorophenyl)sulfonyl)-3-(hydroxymethyl)azetidin-3-yl)methoxy)-2-fluorobenzonitrile], the IC50 at TRPM8 is 14.4 µM; on human TRPV4 it was 0.052 to 0.061 µM; at TRPV3, more than 100 µM. Also, the “selectivity for TRPV4 versus TRPA1, TRPM8, TRPV3 and TRPV1” value at human TRPV4 (comparison of IC50 values) is given as “substantially more selective for TRPV4”.
In the case of `Cl.N#Cc1ccc(OCC2(N)CN(S(=O)(=O)c3ccc(Cl)cc3Cl)C2)cc1F` [Compound 52, 4-((3-Amino-1-((2,4-dichlorophenyl)sulfonyl)azetidin-3-yl)methoxy)-2-fluorobenzonitrile hydrochloride salt], the figures for the 50% inhibitory concentration (IC50) at TRPM8, at human TRPV4 and on TRPV3 were 35.9 µM, 0.024 to 0.066 µM and more than 100 µM, respectively.

For orientation: IC50 means the concentration that gives 50% inhibition. Low readings indicate inhibition by little substance, high ones a need for much substance.
